Test results published in publication PMC10257182, “Discovery of senolytics using machine learning” (Nature Communications, 2023).
Where “and” joins values, the source holds several entries; their conditions need not be identical. Equal values may be shown once.

How the values were obtained:
Assay type in all cases: cell-based, human
[1] = test system: non-senescent control IMR90 ER:RAS cells; test: Nuclei count (Hoechst, high content imaging) senolytic assay, OIS model, non-senescent control cells; settings: for Mean % Cell Survival: Control, mean n=3 (Fig 3C); for % Cell Survival: control
Method in brief: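 Senescence in IMR90 ER:RAS fibroblasts induced with 100 nM 4-OHT; non-senescent and senescent cells treated 72 h with compounds, 10-point […] range 10 μM–10 nM, triplicate. Cells fixed, permeabilised, Hoechst-stained; total nuclei per well counted by high-content imaging versus untreated controls as cell-death readout.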

[2] = test system: senescent A549 cells (etoposide-induced); test: Nuclei count senolytic assay, therapy-induced senescence (TIS) model, senescent cells; settings: for Mean % Cell Survival: Senescent cells; for % Cell Survival: senescence cells, single replicate
Method in brief: (§1)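 A549 cells were made senescent with 100 μM etoposide for 48 h, then kept three days in normal media; non-senescent A549 served as controls. Compounds were dosed as a 10-point […] series (10 μM to 10 nM final) for 72 h in triplicate. Hoechst-stained nuclei were counted by imaging after fixation.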

[3] = test system: non-senescent control A549 cells; test: Nuclei count senolytic assay, TIS model, non-senescent control cells; settings: for Mean % Cell Survival: Control cells; for % Cell Survival: control cells, single replicate
Method in brief: as §1

In the case of `CO[C@H]1C[C@H](O[C@H]2CC[C@]3(C)[C@H]4CC[C@]5(C)[C@@H](C6=CC(=O)OC6)CC[C@]5(O)[C@@H]4CC[C@]3(O)C2)O[C@H](C)[C@H]1O[C@@H]1O[C@H](CO)[C@@H](O)[C@H](O)[C@H]1O` [Periplocin, periplocin], the “Mean % Cell Survival” value ([1]; log (dose) [M] -5, 72 h) is reported as 18.4295%, the “Mean % Cell Survival” value ([1]; log (dose) [M] -5.33, 72 h) is reported as 19.4604% and the “Mean % Cell Survival” value ([1]; log (dose) [M] -5.66, 72 h) is reported as 23.5452%. For the same molecule, the “Mean % Cell Survival” value ([1]; log (dose) [M] -6, 72 h) was 29.0681%, the “Mean % Cell Survival” value ([1]; log (dose) [M] -6.33, 72 h) was 43.2104% and the “Mean % Cell Survival” value ([1]; log (dose) [M] -6.66, 72 h) was 52.7161%. For the same molecule, the “Mean % Cell Survival” value ([1]; log (dose) [M] -7, 72 h) was 63.4586%, the “Mean % Cell Survival” value ([1]; log (dose) [M] -7.33, 72 h) was 71.1117% and the “Mean % Cell Survival” value ([1]; log (dose) [M] -7.66, 72 h) was 89.3621%. For the same molecule, the “Mean % Cell Survival” value ([1]; log (dose) [M] -8, 72 h) was 91.9585%, the IC50 ([1]; OIS model, non-senescent IMR90 ER:RAS, nuclei count, 72 h) was 300 nM and the “% Cell Survival” value ([1]; log (dose) [M] -5, individual replicates (Fig 3D)) was 15.9071% and 11.1013% and 28.2801%. The “% Cell Survival” value ([1]; log (dose) [M] -5.33, individual replicates (Fig 3D)) was 20.9802% and 15.9471% and 21.4539%, the “% Cell Survival” value ([1]; log (dose) [M] -5.66, individual replicates (Fig 3D)) was 25.1075% and 20.6167% and 24.9113% and the “% Cell Survival” value ([1]; log (dose) [M] -6, individual replicates (Fig 3D)) was 32.8461% and 26.2555% and 28.1028%. For the same molecule, the “% Cell Survival” value ([1]; log (dose) [M] -6.33, individual replicates (Fig 3D)) was 39.8108% and 40.3524% and 49.4681%, the “% Cell Survival” value ([1]; log (dose) [M] -6.66, individual replicates (Fig 3D)) was 51.9347% and 55.859% and 50.3546% and the “% Cell Survival” value ([1]; log (dose) [M] -7, individual replicates (Fig 3D)) was 57.6956% and 62.3789% and 70.3014%. For the same molecule, the “% Cell Survival” value ([1]; log (dose) [M] -7.33, individual replicates (Fig 3D)) was 64.4884% and 71.5419% and 77.305%, the “% Cell Survival” value ([1]; log (dose) [M] -7.66, individual replicates (Fig 3D)) was 94.8409% and 82.7313% and 90.5142% and the “% Cell Survival” value ([1]; log (dose) [M] -8, individual replicates (Fig 3D)) was 93.6371% and 90.7489% and 91.4894%. The “concentration at which a senolytic effect was reached” value ([2]; TIS A549, Hoechst labelling, marginal effect on normal cells) was 46.4 nM, the IC50 ([2]; TIS model, etoposide-induced senescent A549, nuclei count, 72 h) was 72.2 nM and the “senolytic action (in words)” value ([2]; experimental screen, TIS senescent A549) was “strong senolytic action”. For the same molecule, the “Mean % Cell Survival” value ([2]; log (dose) [M] -5) was 2.656%, the “% Cell Survival” value ([2]; log (dose) [M] -5) was 2.664% and 2.743% and 2.561% and the “Mean % Cell Survival” value ([2]; log (dose) [M] -5.33) was 3.4604%. The “% Cell Survival” value ([2]; log (dose) [M] -5.33) was 2.7192% and 5.421% and 2.241%, the “Mean % Cell Survival” value ([2]; log (dose) [M] -5.66) was 3.427% and the “% Cell Survival” value ([2]; log (dose) [M] -5.66) was 2.83% and 4.507% and 2.945%. For the same molecule, the “Mean % Cell Survival” value ([2]; log (dose) [M] -6) was 6.477%, the “% Cell Survival” value ([2]; log (dose) [M] -6) was 6.937% and 6.9889% and 5.506% and the “Mean % Cell Survival” value ([2]; log (dose) [M] -6.33) was 11.1387%. For the same molecule, the “% Cell Survival” value ([2]; log (dose) [M] -6.33) was 13.0411% and 10.516% and 9.859%, the “Mean % Cell Survival” value ([2]; log (dose) [M] -6.66) was 17.1368% and the “% Cell Survival” value ([2]; log (dose) [M] -6.66) was 19.7003% and 13.9125% and 17.7977%. The “Mean % Cell Survival” value ([2]; log (dose) [M] -7) was 34.3857%, the “% Cell Survival” value ([2]; log (dose) [M] -7) was 35.4051% and 33.1809% and 34.5711% and the “Mean % Cell Survival” value ([2]; log (dose) [M] -7.33) was 62.5957%. For the same molecule, the “% Cell Survival” value ([2]; log (dose) [M] -7.33) was 65.3163% and 61.2671% and 61.2036%, the “Mean % Cell Survival” value ([2]; log (dose) [M] -7.66) was 94.3691% and the “% Cell Survival” value ([2]; log (dose) [M] -7.66) was 88.7902% and 97.518% and 96.799%. The “Mean % Cell Survival” value ([2]; log (dose) [M] -8) was 98.9494%, the “% Cell Survival” value ([2]; log (dose) [M] -8) was 101.831% and 100.523% and 94.4942% and the IC50 ([3]; TIS model, non-senescent A549, nuclei count, 72 h) was 267 nM. The “Mean % Cell Survival” value ([3]; log (dose) [M] -5) was 2.124%, the “% Cell Survival” value ([3]; log (dose) [M] -5) was 2.877% and 2.211% and 1.286% and the “Mean % Cell Survival” value ([3]; log (dose) [M] -5.33) was 3.638%. For the same molecule, the “% Cell Survival” value ([3]; log (dose) [M] -5.33) was 1.2112% and 8.916% and 0.7857%, the “Mean % Cell Survival” value ([3]; log (dose) [M] -5.66) was 7.571% and the “% Cell Survival” value ([3]; log (dose) [M] -5.66) was 13.9288% and 0.7846% and 8%. The “Mean % Cell Survival” value ([3]; log (dose) [M] -6) was 7.77%, the “% Cell Survival” value ([3]; log (dose) [M] -6) was 11.9606% and 5.492% and 5.857% and the “Mean % Cell Survival” value ([3]; log (dose) [M] -6.33) was 26.1787%. The “% Cell Survival” value ([3]; log (dose) [M] -6.33) was 37.7744% and 16.7618% and 24%, the “Mean % Cell Survival” value ([3]; log (dose) [M] -6.66) was 59.1283% and the “% Cell Survival” value ([3]; log (dose) [M] -6.66) was 65.1022% and 52.2111% and 60.0714%. The “Mean % Cell Survival” value ([3]; log (dose) [M] -7) was 84.2496%, the “% Cell Survival” value ([3]; log (dose) [M] -7) was 92.3543% and 73.8231% and 86.5714% and the “Mean % Cell Survival” value ([3]; log (dose) [M] -7.33) was 108.222%. For the same molecule, the “% Cell Survival” value ([3]; log (dose) [M] -7.33) was 116.881% and 101.07% and 106.714%, the “Mean % Cell Survival” value ([3]; log (dose) [M] -7.66) was 106.048% and the “% Cell Survival” value ([3]; log (dose) [M] -7.66) was 102.877% and 112.197% and 103.071%. For the same molecule, the “Mean % Cell Survival” value ([3]; log (dose) [M] -8) was 97.1202% and the “% Cell Survival” value ([3]; log (dose) [M] -8) was 99.8486% and 91.5121% and 100%.
